Test results: PubChem BioAssay AID2060883 (Molecular Pharmacology Branch, DTP, NCI, 2025)

Tested on: 843782-103-R-J1-PDC complex spheroid viability
Experiment: Anticancer human tumor 843782-103-R-J1-PDC patient-derived lung adenocarcinoma cell line growth inhibition [RAS]
Conditions: for IC50: curve of first compound; for viability, T/C: stronger effect = lower value
How it was run: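 Agents were tested in combination matrices in half-log decrements from a top concentration at or near clinical Cmax (10 microM if undetermined). Targets were multi-cell spheroids of tumour lines plus HUVEC and MSC stromal cells.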

[1] = second compound 0.0316 µM, first compound 0.00316 µM
[2] = second compound 0.0316 µM, first compound 0.01 µM
[3] = second compound 0.0316 µM, first compound 0.0316 µM
[4] = second compound 0.0316 µM, first compound 0.1 µM
[5] = second compound 0.0316 µM, first compound 0.316 µM
[6] = second compound 0.0316 µM, first compound 1 µM
[7] = second compound 0.1 µM, first compound 0.00316 µM
[8] = second compound 0.1 µM, first compound 0.01 µM
[9] = second compound 0.1 µM, first compound 0.0316 µM
[10] = second compound 0.1 µM, first compound 0.1 µM
[11] = second compound 0.1 µM, first compound 0.316 µM
[12] = second compound 0.1 µM, first compound 1 µM
[13] = second compound 0.316 µM, first compound 0.00316 µM
[14] = second compound 0.316 µM, first compound 0.01 µM
[15] = second compound 0.316 µM, first compound 0.0316 µM
[16] = second compound 0.316 µM, first compound 0.1 µM
[17] = second compound 0.316 µM, first compound 0.316 µM
[18] = second compound 0.316 µM, first compound 1 µM
[19] = second compound 1 µM, first compound 0.00316 µM
[20] = second compound 1 µM, first compound 0.01 µM
[21] = second compound 1 µM, first compound 0.0316 µM
[22] = second compound 1 µM, first compound 0.1 µM
[23] = second compound 1 µM, first compound 0.316 µM
[24] = second compound 1 µM, first compound 1 µM
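Further: viability read after seven days of compound exposure.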

Nc1ccn(C2OC(CO)C(O)C2(F)F)c(=O)n1 (centres undefined) + C#Cc1c(F)ccc2cc(O)cc(-c3ncc4c(N5CC6CCC(C5)N6)nc(OCC56CCCN5CC(F)C6)nc4c3F)c12
IC50 (second compound 0.0316 µM): 29.3 nM | IC50 (second compound 0.1 µM): 39.3 nM | IC50 (second compound 0.316 µM): 42.6 nM | IC50 (second compound 1 µM): 32.6 nM | IC50 (second compound 3.16 µM): 21.8 nM | IC50 (second compound 10 µM): 14.3 nM | viability, T/C [1]: 101% | viability, T/C [2]: 101% | viability, T/C [3]: 46.1% | viability, T/C [4]: 8.18% | viability, T/C [5]: 2.69% | viability, T/C [6]: 1.88% | viability, T/C [7]: 99.5% | viability, T/C [8]: 106% | viability, T/C [9]: 59.7% | viability, T/C [10]: 8.24% | viability, T/C [11]: 1.77% | viability, T/C [12]: 1.7% | viability, T/C [13]: 107% | viability, T/C [14]: 103% | viability, T/C [15]: 65.4% | viability, T/C [16]: 5.81% | viability, T/C [17]: 2.1% | viability, T/C [18]: 2.74% | viability, T/C [19]: 110% | viability, T/C [20]: 90.7% | viability, T/C [21]: 54.1% | viability, T/C [22]: 9.25% | viability, T/C [23]: 2.99% | viability, T/C [24]: 2.29% | viability, T/C (second compound 3.16 µM, first compound 0.00316 µM): 93% | viability, T/C (second compound 3.16 µM, first compound 0.01 µM): 73.8% | viability, T/C (second compound 3.16 µM, first compound 0.0316 µM): 40% | viability, T/C (second compound 3.16 µM, first compound 0.1 µM): 7.44% | viability, T/C (second compound 3.16 µM, first compound 0.316 µM): 2.53% | viability, T/C (second compound 3.16 µM, first compound 1 µM): 1.91% | viability, T/C (second compound 10 µM, first compound 0.00316 µM): 64.6% | viability, T/C (second compound 10 µM, first compound 0.01 µM): 59.5% | viability, T/C (second compound 10 µM, first compound 0.0316 µM): 30.3% | viability, T/C (second compound 10 µM, first compound 0.1 µM): 9.79% | viability, T/C (second compound 10 µM, first compound 0.316 µM): 3.81% | viability, T/C (second compound 10 µM, first compound 1 µM): 3%

Nc1ccn(C2OC(CO)C(O)C2(F)F)c(=O)n1 (centres undefined) + C=CC(=O)N1CCN(c2nc(OCC3CCCN3C)nc3c(F)c(-c4nc(N)cc(C)c4C(F)(F)F)c(Cl)cc23)C(C)C1
IC50 (second compound 0.00316 µM): 23.7 nM | IC50 (second compound 0.01 µM): 34.4 nM | IC50 (second compound 0.0316 µM): 25.4 nM | IC50 (second compound 0.1 µM): 21.7 nM | IC50 (second compound 0.316 µM): 23.1 nM | IC50 (second compound 1 µM): 20 nM | viability, T/C (second compound 0.00316 µM, first compound 0.00316 µM): 89.9% | viability, T/C (second compound 0.00316 µM, first compound 0.01 µM): 89.7% | viability, T/C (second compound 0.00316 µM, first compound 0.0316 µM): 36.7% | viability, T/C (second compound 0.00316 µM, first compound 0.1 µM): 3.04% | viability, T/C (second compound 0.00316 µM, first compound 0.316 µM): 1.74% | viability, T/C (second compound 0.00316 µM, first compound 1 µM): 2.04% | viability, T/C (second compound 0.01 µM, first compound 0.00316 µM): 90.6% | viability, T/C (second compound 0.01 µM, first compound 0.01 µM): 87.7% | viability, T/C (second compound 0.01 µM, first compound 0.0316 µM): 53.7% | viability, T/C (second compound 0.01 µM, first compound 0.1 µM): 3.4% | viability, T/C (second compound 0.01 µM, first compound 0.316 µM): 1.89% | viability, T/C (second compound 0.01 µM, first compound 1 µM): 1.3% | viability, T/C [1]: 88.7% | viability, T/C [2]: 86.3% | viability, T/C [3]: 41.4% | viability, T/C [4]: 4.87% | viability, T/C [5]: 1.41% | viability, T/C [6]: 1.39% | viability, T/C [7]: 96.5% | viability, T/C [8]: 82.5% | viability, T/C [9]: 34.6% | viability, T/C [10]: 2.56% | viability, T/C [11]: 1.84% | viability, T/C [12]: 1.83% | viability, T/C [13]: 89.9% | viability, T/C [14]: 82.8% | viability, T/C [15]: 37.8% | viability, T/C [16]: 4.66% | viability, T/C [17]: 1.55% | viability, T/C [18]: 1.83% | viability, T/C [19]: 93% | viability, T/C [20]: 80% | viability, T/C [21]: 30.3% | viability, T/C [22]: 4.7% | viability, T/C [23]: 1.55% | viability, T/C [24]: 1.67%
